From patent publication US11945862B2, “Compositions and methods for antibody production” (ImmunoGen, Inc., priority 2017, dated 2024)

Experiments:
humanized N901 antibody = experiment: Antibody disulfide reduction by CHO cell lysate (RIPA buffer), thiol/antibody by Ellman's assay; format: biochemical
Protocol: For all of the examples described below, cell damage was simulated by multiple freeze-thaw cycles of cells, by addition of RIPA buffer (50 mM Tris-HCl, pH 7.4, 1% NP-40, 0.5% sodium deoxycholate, 0.1% sodium dodecylsulfate), or by using microfluidizer. This damaged cell supernatant or lysate was then incubated with a buffered solution containing antibody with or without the anti-reduction agent being tested, following which the extent of the antibody-disulfide reduction was measured using Ellman's assay for thiol (P. W. Riddles, R. L. Blakeley, and B. Zerner, Methods Enzymol., 91, 49-60, 1983) or by non-reducing SDS protein LabChip analysis. The total thiol level present in the mixture of damaged cell supernatant/lysate was measured initially.
The effect of 1,2-naphthoquinone-4-sulfonic acid (NQS) on antibody-disulfide reduction was studied by incubating 1,2-naphthoquinone-4-sulfonic acid at several concentrations with antibody and damaged CHO lysate. The damaged CHO cell lysate was generated by the addition of 0.5 ml RIPA buffer (50 mM Tris-HCl, pH 7.4, 1% NP-40, 0.5% sodium deoxycholate, 0.1% sodium dodecylsulfate) to 100 million CHO cells. The thiol concentration in CHO cell lysate was measured by Ellman's assay as 2.1 mM.
Each sample contained pre-mixed 0.5 ml RIPA buffer (50 mM Tris-HCl, pH 7.4, 1% NP-40, 0.5% sodium deoxycholate, 0.1% sodium dodecylsulfate) with 1 mg humanized N901 antibody, with or without 1,2-naphthoquinone-4-sulfonic acid (25 micromolar, or 50 micromolar, or 100 micromolar), which was added to a cell pellet of 100 million CHO cells, and the resuspended cells were incubated at ambient temperature for 30 minutes, following which the cell debris were pelleted by centrifugation (16,000 g, 5 min). The supernatant from each sample was added to 50 microliter immobilized-Protein A beads (RepliGen) and rotated at ambient temperature for 3 hours, after which the supernatant was removed and the beads washed with PBS.
(§1) The thiol content of the immobilized antibody was determined by the addition of 0.6 ml of PBS containing 0.5 mM DTNB (Ellman's reagent) to the beads, rotation for about 10 minutes, centrifugation, and absorbance measurement of supernatant at 412 nm.
The effect of anthraquinone-2-sulfonic acid (AQS) on antibody-disulfide reduction was studied during co-incubation of anthraquinone-2-sulfonic acid with antibody and damaged CHO lysate. Each sample contained pre-mixed 1 ml RIPA buffer (50 mM Tris-HCl, pH 7.4, 1% NP-40, 0.5% sodium deoxycholate, 0.1% sodium dodecylsulfate) with 1 mg humanized N901 antibody, with or without 0.2 mM anthraquinone-2-sulfonic acid (AQS), which was added to a cell pellet of 100 million CHO cells, and the resuspended cells were incubated at ambient temperature for 30 minutes, following which the cell debris were pelleted by centrifugation (16,000 g, 5 min). The thiol concentration in CHO cell lysate was 1 mM (Ellman's assay).
as §1, with “The supernatant from each sample was added to 50 microliter immobilized-Protein A beads (RepliGen) and rotated at ambient temperature for 3 hours, after which the supernatant was removed and the beads washed with PBS. The” for “The”
In another experiment, 1 mg huN901 antibody was incubated with CHO lysate, with or without 0.4 mM anthraquinone-2-sulfonic acid for 4 hours. The mixture was then analyzed for thiol/antibody as above.
The thiol concentration in CHO cell lysate was 1 mM (Ellman's assay).
The supernatant from each sample was added to 50 microliter immobilized-Protein A beads (RepliGen) and rotated at ambient temperature for 3 hours, after which the supernatant was removed and the beads washed with PBS. […]

[1] = tested on: Humanized FOLR1 IgG1 antibody; experiment: Antibody disulfide reduction by CHO cell lysate (RIPA buffer), thiol per antibody by Ellman's assay; format: biochemical; settings: 2 mM agent
Protocol: Lysates of CHO cells (˜60 million cells lysed in 0.6 ml RIPA buffer and clarified by centrifugation) were added to each of these mixtures. The pH values of all samples were adjusted to 7. […] The samples were incubated with 200 microliter immobilized-Protein A beads (RepliGen) and rotated at ambient temperature for 3 hours, after which the supernatant was removed and the beads washed with PBS. The thiol content of the immobilized antibody was determined by the addition of 0.2 ml of PBS containing 0.5 mM DTNB (Ellman's reagent) to the beads, rotation for about 10 minutes, centrifugation, and absorbance measurement of the supernatant at 412 nm.
The pH values of all samples were adjusted to 7. The samples were incubated with 200 microliter immobilized-Protein A beads (RepliGen) and rotated at ambient temperature for 3 hours, after which the supernatant was removed and the beads washed with PBS. The thiol content of the immobilized antibody was determined by the addition of 0.2 ml of PBS containing 0.5 mM DTNB (Ellman's reagent) to the beads, rotation for about 10 minutes, centrifugation, and absorbance measurement of the supernatant at 412 nm.
To test the effect of L-cystine bis(t-butyl ester) (CDBE) on protecting antibody disulfide bonds from reduction by CHO lysate, humanized FOLR1 IgG1 antibody (2 mg) was incubated with CHO lysate in RIPA buffer (0.6 ml lysate of 60 million CHO cells in 0.6 ml RIPA buffer, clarified by centrifugation) without or with 0.5 or 1 mM CDBE. The samples were rotated at ambient temperature with 200 microliter immobilized-Protein A beads (RepliGen) for 2 hours, after which the supernatant was removed and the beads washed with PBS. The thiol content of the immobilized antibody was determined by the addition of 0.2 ml of PBS containing 0.5 mM DTNB (Ellman's reagent) to the beads, centrifugation, and absorbance measurement of the supernatant at 412 nm.
The samples were rotated at ambient temperature with 200 microliter immobilized-Protein A beads (RepliGen) for 2 hours, after which the supernatant was removed and the beads washed with PBS. The thiol content of the immobilized antibody was determined by the addition of 0.2 ml of PBS containing 0.5 mM DTNB (Ellman's reagent) to the beads, centrifugation, and absorbance measurement of the supernatant at 412 nm.

humanized FOLR1 IgG1 = experiment: Antibody fragmentation in HCCF treated with 20% (v/v) microfluidized CHO cells, non-reducing SDS-Protein Lab Chip; format: biochemical; settings: 1 mM of each additive, 6 h; control 78% fragmentation
Protocol: The samples were quenched with 5 mM N-ethylmaleimide (NEM), purified using immobilized Protein A, and subjected to non-reducing SDS-Protein Lab Chip electrophoretic analysis.

[2] = tested on: recombinant humanized IgG1 antibody; experiment: Antibody fragmentation in thawed HCCF under nitrogen or air with CDME, non-reducing SDS-Protein Lab Chip; format: biochemical
Protocol: A CHO cell culture producing recombinant humanized IgG1 antibody was subjected to centrifugation and the resulting harvest cell culture fluid (HCCF) was frozen at −80° C. […] At various time points, samples were quenched with N-ethylmaleimide (NEM), purified using immobilized Protein A, and analyzed for fragments using non-reducing SDS-Protein Lab Chip electrophoresis. […] In contrast, the sample overlayed with air became less fragmented with time, reaching a plateau of about 25% fragmentation at 20 hours.

humanized IgG4 = experiment: IgG4 disulfide reduction by CHO cell lysate, DTNB thiol assay; format: biochemical; settings: 1 mM agent, 30% v/v CHO cell lysate, 4 hours, pH 7; control 7.7
Protocol: All samples were adjusted to pH 7 and incubated with 200 μl protein A beads for 4 hours while rotating at room temperature. After the incubation the supernatant was removed and beads washed three times with 10 ml PBS. To analyze the thiol content of the protein A-bound IgG4 antibody, the beads were incubated with a 0.5 mM DTNB solution for 5 min and the absorbance of the supernatant measured at 412 nm.

Humanized IgG2 antibody = experiment: IgG2 disulfide reduction by CHO cell lysate, DTNB thiol assay; format: biochemical; settings: 1 mM agent, 40% v/v CHO cell lysate, 5 hours, pH 7; control 0.84
Protocol: Humanized IgG2 antibody (1 mg/ml; final concentration) was incubated with 40% v/v CHO cell lysate (˜40 million cells lysed with 0.4 ml RIPA buffer and debris removed by centrifugation) in a total volume of 1 ml. The control sample was adjusted to pH 7 and rotated at RT for 5 hours with 100 μl protein A beads. […] After the incubation time of 5 hours, the supernatant was removed and the beads were washed three times with 10 ml PBS before the thiol amount of the immobilized antibody was analyzed by adding 0.5 mM DTNB and measuring the absorbance at 412 nm.

[3] = Redox potential of antibody solution with media additive over a range of DTT concentrations; format: physicochemical; settings: 1 mM additive, DTT 0.34 μM to 170 μM, 37° C., 1 h
M9346A antibody [4] = format: biochemical; settings: 1 mM additive, 100 μM DTT, 37° C., 1 h; control 80%
M9346A antibody [5] = format: biochemical; settings: 1 mM additive, conditions where control without additive was 100% fragmented
Protocol: Antibody reduction was induced in a biological assay by adding cell lysate to purified monoclonal antibody. […]. Increasing amounts of CHO cell lysate were added to mimic different percentages of cell lysis, ranging from […]. Fresh NADPH was added to a concentration of 400 μM. The mixtures were incubated in a water bath at 37° C. for 1 h. Free thiols were alkylated by addition of 10% (v/v) of 50 mM N-ethyl-maleimide (NEM) solution. Samples were analyzed by non-reduced sodium dodecyl sulfate denaturing capillary electrophoresis (NR-CE-SDS).
To test the capacity for protection further, the stringency of the assay was increased. […].

CHO cells = experiment: Viability of CHO cells after 1 day treatment; settings: 0.75 mM, control 98.9%

With `COC(=O)[C@@H](N)CSSC[C@H](N)C(=O)OC` [CDME, L-cystine dimethyl ester] the thiol/antibody (humanized N901 antibody; 0.05 mM agent, 3 hours, lysate thiol 1 mM, control 5.20) was 2.75 thiol/antibody, the thiol/antibody (humanized N901 antibody; 0.1 mM agent, 3 hours, lysate thiol 1 mM, control 5.20) was 1.85 thiol/antibody and the thiol/antibody (humanized N901 antibody; 0.2 mM agent, 3 hours, lysate thiol 1 mM, control 5.20) was 1.56 thiol/antibody. For the same molecule, the thiol/antibody (humanized N901 antibody; 0.4 mM agent alone, 4 hours, control 4.34) was 1.37 thiol/antibody, the thiol/antibody (humanized N901 antibody; 0.5 mM agent, 3 hours, lysate thiol 1 mM, control 5.20) was 1.19 thiol/antibody and the thiol/antibody (humanized N901 antibody; 0.75 mM agent, 4° C. overnight, control 2.29) was 0.96 thiol/antibody. The “decrease in disulfide reduction compared to the control” value ([1]; 100 mM phosphate buffer pH 7, 2 hours) was ~89%, the thiol per antibody ([1]; 100 mM phosphate buffer pH 7, 2 hours, control 1.16) was ~0.13 thiol per antibody and the thiol per antibody ([1]; 3 hours, pH 7, lysate of ~40 million cells, control 0.95) was “about 0.02 thiol per antibody”. For the same molecule, the thiol per antibody ([1]; 3 hours, pH 7, lysate of ~60 million cells, control 1.96) was “about 0.25 thiol per antibody”, the “fragmentation compared with no additive control” value (humanized FOLR1 IgG1) was “much lower fragmentations” and the “time the antibody was protected from reduction” value ([2]; 1 mM CDME with nitrogen) was “up to 20 hours”. For the same molecule, the “time the antibody was protected from reduction” value ([2]; 2 mM CDME with nitrogen) was ≤ 45 h, the “expected protection against antibody disulfide bond reduction” value ([2]; combination of oxygen sparging with CDME) was “highly effective” and the “fragmentation with air overlay plus agent versus air overlay alone” value ([2]; ~1 mM CDME with air overlay, up to 72 hours) was “lowered the fragmentation further throughout the course of the study”. The “thiol groups per antibody” value (humanized IgG4) was 0.004 thiol groups per antibody, the “reduced thiols per antibody” value (Humanized IgG2 antibody) was “near-zero reduction” and the “modulation of redox potential” value [3] was “constant redox potential across all DTT concentrations”. For the same molecule, the intact antibody (M9346A antibody [4]) was 100%, the “protection at increased assay stringency” value (M9346A antibody [5]) was “protective of disulfide reduction” and the “viability of CHO cells” value (CHO cells) was 98.9%.
